What all share (type): functional
Test [1] concerns Rattus norvegicus. As to the kind of experiment: Percent reduction was determined by using the ratio of mean of treated animal to that of control animal at a dose of 0.99 mg/kg.
For test [2], the system named is Rattus norvegicus. In words: Stool output of rat over the 6-h collection period when a dose of 0.125 mg/kg (0.29 administered.
The test system of test [3] is Rattus norvegicus. As to the kind of experiment: Stool output of rat over the 6-h collection period when a dose of 0.0156 mg/kg (0.036 administered.
The subject of test [4] is Rattus norvegicus. As to the kind of experiment: Stool output of rat over the 6-h collection period when a dose of 0.99 mg/kg (2.3 administered.
Test [5] concerns Rattus norvegicus. In words: Weight loss of rat over the 6-h experimental period when a dose of 0.5 mg/kg (1.16 administered.
Test [6] deals with Rattus norvegicus. As to the kind of experiment: Stool output of rat over the 6-h collection period when a dose of 0.03125 mg/kg (0.0726 administered.
Test [7] concerns Rattus norvegicus. As to the kind of experiment: Percent reduction was determined by using the ratio of mean of treated animal to that of control animal at a dose of 0.125 mg/kg.
The subject of test [8] is Rattus norvegicus. In words: Percent reduction was determined by using the ratio of mean of treated animal to that of control animal at a dose of 0.0625 mg/kg.
Test [9] deals with Rattus norvegicus. In words: Stool output of rat over the 6-h collection period when a dose of 0.0078 mg/kg (0.0181 administered.
Test [10] relates to Rattus norvegicus. As to the kind of experiment: Weight loss of rat over the 6-h experimental period when a dose of 0.25 mg/kg (0.58 administered.
Test [11] deals with Rattus norvegicus. As to the kind of experiment: Stool output of rat over the 6-h collection period when a dose of 0 mg/kg (0 administered.
The subject of test [12] is Rattus norvegicus. In words: Percent reduction was determined by using the ratio of mean of treated animal to that of control animal at a dose of 0.03125 mg/kg.
In test [13] the test system is Rattus norvegicus. In words: Percent reduction was determined by using the ratio of mean of treated animal to that of control animal at a dose of 0.0156 mg/kg.
The test system of test [14] is Rattus norvegicus. In words: Stool output of rat over the 6-h collection period when a dose of 4.97 mg/kg (11.6 uMl) was administered.
Test [15] concerns Rattus norvegicus. As to the kind of experiment: Weight loss of rat over the 6-h experimental period when a dose of 0.125 mg/kg (0.29 administered.
The subject of test [16] is Rattus norvegicus. As to the kind of experiment: Percent reduction was determined by using the ratio of mean of treated animal to that of control animal at a dose of 0.25 mg/kg.
For test [17], the system named is Rattus norvegicus. As to the kind of experiment: Weight loss of rat over the 6-h experimental period when a dose of 0.0156 mg/kg (0.036 administered.
The subject of test [18] is Rattus norvegicus. As to the kind of experiment: Stool output of rat over the 6-h collection period when a dose of 0.5 mg/kg (1.16 administered.
The subject of test [19] is Rattus norvegicus. In words: Weight loss of rat over the 6-h experimental period when a dose of 0 mg/kg (0 administered.
For test [20], the system named is Rattus norvegicus. In words: Percent reduction was determined by using the ratio of mean of treated animal to that of control animal at a dose of 0.5 mg/kg.
In test [21] the test system is Rattus norvegicus. In words: Weight loss of rat over the 6-h experimental period when a dose of 0.03125 mg/kg (0.0726 administered.
The test system of test [22] is Rattus norvegicus. As to the kind of experiment: Weight loss of rat over the 6-h experimental period when a dose of 0.99 mg/kg (2.3 administered.
The subject of test [23] is Rattus norvegicus. As to the kind of experiment: Weight loss of rat over the 6-h experimental period when a dose of 0.0078 mg/kg (0.0181 administered.
For test [24], the system named is Rattus norvegicus. As to the kind of experiment: Stool output of rat over the 6-h collection period when a dose of 24.87 mg/kg (57.8 administered.
Test [25] has as its system Rattus norvegicus. As to the kind of experiment: Stool output of rat over the 6-h collection period when a dose of 0.25 mg/kg (0.58 administered.
Test [26] deals with Rattus norvegicus. As to the kind of experiment: Weight loss of rat over the 6-h experimental period when a dose of 0.0625 mg/kg (0.145 administered.
For test [27], the system named is Rattus norvegicus. As to the kind of experiment: Percent reduction was determined by using the ratio of mean of treated animal to that of control animal at a dose of 24.87 mg/kg.
In test [28] the test system is Rattus norvegicus. As to the kind of experiment: Percent reduction was determined by using the ratio of mean of treated animal to that of control animal at a dose of 4.97 mg/kg.
The test system of test [29] is Rattus norvegicus. As to the kind of experiment: Weight loss of rat over the 6-h experimental period when a dose of 4.97 mg/kg (11.6 administered.
For test [30], the system named is Rattus norvegicus. As to the kind of experiment: Weight loss of rat over the 6-h experimental period when a dose of 24.87 mg/kg (57.8 administered.
The subject of test [31] is Rattus norvegicus. As to the kind of experiment: Percent reduction was determined by using the ratio of mean of treated animal to that of control animal at a dose of 0.0078 mg/kg.
In test [32] the test system is Rattus norvegicus. As to the kind of experiment: Stool output of rat over the 6-h collection period when a dose of 0.0625 mg/kg (0.145 administered.
For test [33], the system named is Rattus norvegicus. In words: Weight loss of rat over the 6-h experimental period when a dose of 5.7 mg/kg (11.6 administered.
In test [34] the test system is Rattus norvegicus. In words: Weight loss of rat over the 6-h experimental period when a dose of 28.2 mg/kg (57.8 administered.
Test [35] deals with Rattus norvegicus. As to the kind of experiment: Percent reduction was determined by using the ratio of mean of treated animal to that of control animal at a dose of 28.2 mg/kg.
For test [36], the system named is Rattus norvegicus. As to the kind of experiment: Stool output of rat over the 6-h collection period when a dose of 28.2 mg/kg (57.8 administered.
Test [37] deals with Rattus norvegicus. As to the kind of experiment: Stool output of rat over the 6-h collection period when a dose of 5.7 mg/kg (11.6 administered.
Test [38] has as its system Rattus norvegicus. As to the kind of experiment: Stool output of rat over the 6-h collection period when a dose of 1.1 mg/kg (2.3 administered.
Test [39] has as its system Rattus norvegicus. As to the kind of experiment: Weight loss of rat over the 6-h experimental period when a dose of 1.1 mg/kg (2.3 administered.

Where “and” joins values, the source holds several entries; their conditions need not be identical. Identical values can stand only once.

For `CCNCCCNC1CCC(NCCCNCC)CC1` (stereo unspecified), the Reduction was 77% and 100% in the test with Rattus norvegicus [1]; 65% and 100% in the test on Rattus norvegicus [7]; 68% and 100% in the test with Rattus norvegicus [8]; 64% and 100% in the test on Rattus norvegicus [12]; 73% and 92% in the test with Rattus norvegicus [13]; 77% and 100% in the test on Rattus norvegicus [16]. The Reduction is 75% and 100% in the test with Rattus norvegicus [20]; 93% and 100% with Rattus norvegicus [27]; 86% and 100% in the test with Rattus norvegicus [28]; 24% in the test on Rattus norvegicus [31]. Besides, the Stool output in the test with Rattus norvegicus [2] is <0 g (350g of rat weight)-1; with Rattus norvegicus [3], <0.4 g (350g of rat weight)-1; in the test on Rattus norvegicus [4] it was <0 g (350g of rat weight)-1; in the test on Rattus norvegicus [6], <0 g (350g of rat weight)-1; in the test with Rattus norvegicus [9] it was >3.6 g (350g of rat weight)-1; in the test with Rattus norvegicus [11], 4.9 g (350g of rat weight)-1. Further, the Stool output with Rattus norvegicus [14], with Rattus norvegicus [18], in the test on Rattus norvegicus [24], in the test with Rattus norvegicus [25] and in the test on Rattus norvegicus [32] was <0 g (350g of rat weight)-1 in each case. Further, the Weight loss is recorded as less than 2.9 g in the test on Rattus norvegicus [5]; less than 2.7 g in the test with Rattus norvegicus [10]; less than 4.1 g in the test with Rattus norvegicus [15]; less than 3.1 g in the test on Rattus norvegicus [17]; 11.6 g in the test with Rattus norvegicus [19]; less than 4.2 g with Rattus norvegicus [21]. Moreover, the Weight loss with Rattus norvegicus [22] was less than 2.7 g; in the test on Rattus norvegicus [23], less than 8.8 g; with Rattus norvegicus [26], less than 3.7 g; with Rattus norvegicus [29] it was less than 1.6 g; with Rattus norvegicus [30] it was less than 0.8 g.
Consider `CC(C)CCNCCCNCCCCNCCCNCCC(C)C`, for which the Weight loss is more than 18.3 g in the test on Rattus norvegicus [33], less than 1.6 g in the test on Rattus norvegicus [34], 14.6 g with Rattus norvegicus [19] and more than 14.2 g in the test with Rattus norvegicus [39]. Besides, the Reduction in the test on Rattus norvegicus [35] is 89% and 100%. Further, the Stool output was 4.6 g (350g of rat weight)-1 with Rattus norvegicus [11], <0 g (350g of rat weight)-1 in the test with Rattus norvegicus [36], >7.8 g (350g of rat weight)-1 in the test on Rattus norvegicus [37] and >4.9 g (350g of rat weight)-1 with Rattus norvegicus [38].

The values above are taken from ChEMBL document CHEMBL1134446, “Polyamine analogue antidiarrheals: a structure-activity study” (J Med Chem, 2001).
